# Test results as given in patent US20230183640A1, “METABOLIC INHIBITORS WITH EFFICACY FOR INHIBITING SULFIDE PRODUCTION IN HARSH ENVIRONMENTS” (MC (US) 3 LLC, priority 2020, published 2023).
# Tests used:
# [1] = test system: sulfate reducing bacteria; experiment: Efficacy in inhibiting H2S production from sulfate reducing bacteria; assay type: cell-based
# Experimental: To understand the hydrogen sulfide inhibition efficacy of the N-hydroxycarboxamide compounds of the present invention, several compounds were tested. Some compounds that can be used in this H2S inhibiting composition are disclosed in Table 2. For the testing procedures, the compounds were dissolved in DMSO, resulting in a stock solution of about 8000-100000 ppm, which was subsequently diluted in 96-well plates or 10 mL serum vials containing media and selected culture to give varying concentrations from 0.09 to 1000 ppm of the compounds in final solution for efficacy testing.
# Strains of commonly found bacteria were used for testing the efficacy of the compounds, viz. Desulfovibrio alaskensis, Desulfovibrio longus and Desulfovibrio gabonensis. Media for the cultures was also prepared by using a standard method. The cultures were aseptically used and incubated under anaerobic conditions. Two well established methods were used for testing various compounds:
# The compounds C1, C12, C14, C15 and C16 were tested individually to understand each of their efficacies in inhibiting the H2S production from sulfate reducing bacteria, under standard temperature and pressure conditions. The efficacy of compounds C14 and C15 against hydrogen sulfide production are disclosed in Example 1, Tables 6 and 7.
# [2] = test system: Desulfovibrio alaskensis 14563; experiment: H2S and Log (Growth) efficacy against SRB, 96-Well Plate Method; assay type: cell-based
# Experimental: A lyophilized Desulfovibrio alaskensis 14563, Desulfovibrio longus 51456, and Desulfovibrio gabonensis 700201 pure cultures received from ATCC were resuspended individually in 500 ul of MB 1250. Aseptically, the content was transferred to a 5-mL tube of MB1250 medium. The cultures were incubated in an anaerobic chamber at 30° C. for 72 hrs. Subsequently, an individual stock culture with a final concentration of 25% glycerol were prepared by adding equal volumes of culture and 50% glycerol. 1 ml of the cultures were then transferred to 2-ml cryogenic vials and stored at −80° C. The purity of the stock cultures was evaluated through PCR, by amplifying the 16S rDNA region, and thus, it was verified that the original ATCC sample was a pure culture. 48-hour cultures of ATCC Desulfovibrio alaskensis 14563, Desulfovibrio longus 51456, and Desulfovibrio gabonensis 700201 were prepared in an anaerobic chamber. Each culture was prepared as a 1:10 culture by taking 1 milliliter (mL) of a pure culture and inoculating 9 milliliters (mL) of fresh MB1250 media. The Desulfovibrio alaskensis 14563 and Desulfovibrio gabonensis 700201 were all grown at 30° C. and the Desulfovibrio longus 51456 culture was grown at 35° C.
# After the 48-hour incubation, 600 microliters (μL) were taken from each culture and optical density (OD) was measured using a Thermofisher Spectronic 200 Spectrophotometer at 600 nm. Each culture was diluted to 0.05 OD600 in fresh MB1250 media and added to the 96 well plates. Edge wells were not used due to their inherent variability and evaporation of the media. Each of the components were added at their respective concentrations for a final volume of 500 μL per well. In Table 3, 6 and 7, the concentrations of the compound used for the experiments are listed. Each experiment was done with at least three replicates for different treatments and non-treatment controls. […] Plates were then sealed with a titer-top and placed into anaerobic boxes and incubated in an anaerobic incubator at 30° C.
# At each time point, sulfide samples were taken, and enumeration plates were made. Enumeration plates were made to determine the log growth in each dosed sample. For this process, enumeration plates were prepared by adding 180 μL fresh media MB1250 containing 0.01 wt % ferrous ammonium sulfate. 20 μL was taken from each well of the challenge plates and transferred to the enumeration plates using a 20-200 μL multichannel pipette. Enumeration plates were mixed three times using the multichannel pipette and serial diluted down the plate tenfold (20 μL into 180 μL). This serial dilution process was repeated for all challenge plate rows giving a total of 6 enumeration plates.
# After 7 days these enumeration plates were read. The ferrous ammonium sulfate in each plate would be converted to iron sulfide, changing wells with SRB growth from clear to black. By counting the number of black wells in a row, the log growth from the original well in the challenge plate can be determined.
# To determine hydrogen sulfide production in each sample, sulfide samples were also taken from each challenge plate. From each well, 9 μL were taken and added to 60 μL of 2% zinc acetate with 0.02% acetic acid. Then, 180 μL of milliQ water was added. 60 μL of stock solution 1 containing 64% sulfuric acid, <1% Dimethyl-4-phenylenediamine (DMPD), water to 100% was added to each well on the plates. This was followed by 3 μL of stock solution 3 containing 50% Iron (III) chloride. All chemicals are ordered from Fisher Scientific and used as received. These were mixed three times and read after 15 minutes. The plates were read at 670 nm using a Biotek microplate reader. Absorbance readings were converted to mM using a standard curve and this was converted to parts per million using the molar mass of sulfur. The standard curves were made using sodium sulfide nonahydrate solutions to give final solutions of 0, 0.125, 0.25 0.5, 1.0, and 1.5 ppm.
smiles,measurement,setting,value
O=C(NO)c1ccccc1 [C15],activity in reducing H2S production,[1]; Tables 6 and 7,did not show significant activity
same,H2S,"[2]; Table 6 run, 2 days, 7.615 PPM",103.6 PPM
same,Log (Growth),"[2]; Table 6 run, 2 days, 7.615 PPM",7.7
same,H2S,"[2]; Table 6 run, 2 days, 15.75 PPM",54.7 PPM
same,Log (Growth),"[2]; Table 6 run, 2 days, 15.75 PPM",7.7
same,H2S,"[2]; Table 6 run, 2 days, 31.25 PPM",54.4 PPM
same,Log (Growth),"[2]; Table 6 run, 2 days, 31.25 PPM",7.0
same,H2S,"[2]; Table 6 run, 2 days, 125 PPM",130.2 PPM
same,Log (Growth),"[2]; Table 6 run, 2 days, 125 PPM",7.3
same,H2S,"[2]; Table 6 run, 2 days, 500 PPM",155.7 PPM
same,Log (Growth),"[2]; Table 6 run, 2 days, 500 PPM",7.3
same,H2S,"[2]; Table 6 run, 2 days, 1000 PPM",130.7 PPM
same,Log (Growth),"[2]; Table 6 run, 2 days, 1000 PPM",8.0
same,H2S,"[2]; Table 6 run, 5 days, 7.615 PPM",35.2 PPM
same,Log (Growth),"[2]; Table 6 run, 5 days, 7.615 PPM",8.0
same,H2S,"[2]; Table 6 run, 5 days, 15.75 PPM",42.7 PPM
same,Log (Growth),"[2]; Table 6 run, 5 days, 15.75 PPM",7.3
same,H2S,"[2]; Table 6 run, 5 days, 31.25 PPM",26.3 PPM
same,Log (Growth),"[2]; Table 6 run, 5 days, 31.25 PPM",7.7
same,H2S,"[2]; Table 6 run, 5 days, 125 PPM",55.5 PPM
same,Log (Growth),"[2]; Table 6 run, 5 days, 125 PPM",7.0
same,H2S,"[2]; Table 6 run, 5 days, 500 PPM",31.8 PPM
same,Log (Growth),"[2]; Table 6 run, 5 days, 500 PPM",7.0
same,H2S,"[2]; Table 6 run, 5 days, 1000 PPM",73.3 PPM
same,Log (Growth),"[2]; Table 6 run, 5 days, 1000 PPM",8.0
CCCCCCCC(=O)NO [C16],efficacy for inhibiting hydrogen sulfide production,[1]; anaerobic conditions,high efficacy
same,H2S,"[2]; Table 7 run, 2 days, 7.615 PPM",83.5 PPM
same,Log (Growth),"[2]; Table 7 run, 2 days, 7.615 PPM",7.7
same,H2S,"[2]; Table 7 run, 2 days, 15.75 PPM",76.9 PPM
same,Log (Growth),"[2]; Table 7 run, 2 days, 15.75 PPM",7.7
same,H2S,"[2]; Table 7 run, 2 days, 31.25 PPM",35.1 PPM
same,Log (Growth),"[2]; Table 7 run, 2 days, 31.25 PPM",7.3
same,H2S,"[2]; Table 7 run, 2 days, 125 PPM",13.3 PPM
same,Log (Growth),"[2]; Table 7 run, 2 days, 125 PPM",6.3
same,H2S,"[2]; Table 7 run, 2 days, 500 PPM",2.7 PPM
same,Log (Growth),"[2]; Table 7 run, 2 days, 500 PPM",5.3
same,H2S,"[2]; Table 7 run, 2 days, 1000 PPM",2.2 PPM
same,Log (Growth),"[2]; Table 7 run, 2 days, 1000 PPM",3.0
same,H2S,"[2]; Table 7 run, 5 days, 7.615 PPM",27.7 PPM
same,Log (Growth),"[2]; Table 7 run, 5 days, 7.615 PPM",7.3
same,H2S,"[2]; Table 7 run, 5 days, 15.75 PPM",29.2 PPM
same,Log (Growth),"[2]; Table 7 run, 5 days, 15.75 PPM",7.0
same,H2S,"[2]; Table 7 run, 5 days, 31.25 PPM",22.1 PPM
same,Log (Growth),"[2]; Table 7 run, 5 days, 31.25 PPM",7.3
same,H2S,"[2]; Table 7 run, 5 days, 125 PPM",6.9 PPM
same,Log (Growth),"[2]; Table 7 run, 5 days, 125 PPM",5.0
same,H2S,"[2]; Table 7 run, 5 days, 500 PPM",2.1 PPM
same,Log (Growth),"[2]; Table 7 run, 5 days, 500 PPM",4.3
same,H2S,"[2]; Table 7 run, 5 days, 1000 PPM",2.0 PPM
same,Log (Growth),"[2]; Table 7 run, 5 days, 1000 PPM",0.0
